Results on two compounds are retold here after patent US20210386787A1, “Hematopoietic Stem and Progenitor Cell Expansion System” (LIFE TECHNOLOGIES CORPORATION, priority 2018, published 2021).

In the assay the test system is CD34^+ mPB cells. The assay can be described thus: Effect of garcinol and VPA on medium performance: 7-day expansion of CD34+ mPB cells in medium ± VPA or garcinol. In kind it is cell-based. Further details: key to % CD34^+CD90^+ / Fold TNC / % CD34^+ / Fold CD34^+: (+) is baseline; (++) or greater improvement; (*) denotes no data (the cells died when garcinol was added to ACF). As to conditions: for % CD34^+CD90^+ / Fold TNC / % CD34^+ / Fold CD34^+: day 7, three donors. Here is the method: In vitro expansion. Enriched CD34^+ cells from three donors of human mobilized peripheral blood (mPB, AllCells) were cultured in the following serum free media: HSC Medium (as provided herein), and the commercially available Stem Cell Growth Medium (SCGM, CellGenix GmbH), STEMSPAN™ Animal Component Free (ACF, STEMCELL Technologies), and STEMPRO™ 34 (Thermo Fisher Scientific). All media were supplemented with 100 ng/mL SCF, 100 ng/mL FLT-3L, 100 ng/mL TPO, 50 ng/mL IL-3, and 20 ng/mL IL-6 (all provided by Thermo Fisher Scientific). HSC expansion was initiated by culturing 5×10^3 CD34^+ cells/mL in a 48 well plate for 7 days in a humidified 37° C., 5% CO2 incubator. At day 7, total nucleated cell (TNC) number and % viability were assessed using a Countess II cell counter (Thermo Fisher Scientific), and cell phenotype was performed by flow cytometry.
Flow cytometry analysis. TNC were washed in phosphate-buffered saline (PBS) and incubated for 20 minutes at room temperature with LIVE/DEAD® Fixable Yellow stain in PBS. Cells were washed in flow cytometry staining buffer, and incubated with a cocktail of monoclonal antibodies against human cell surface antigens: CD34 PE-Cy7, CD90 APC, CD45RA Pacific Blue, for 30 minutes at 4° C. Cells were analyzed on a Attune NxT flow cytometer (Thermo Fisher Scientific), and FLOWJO® Software (version 7.6.5 Becton Dickinson).
Effect of small molecules to medium performance. To assess the contribution of valproic acid (VPA) and garcinol to competitor media, the small molecules were added to SCGM and STEMSPAN™ ACF either in combination or individually at the final concentration present in HSC Medium. To address whether there is a reduction in performance of HSC Medium when the small molecules were excluded from the formulation, either VPA or garcinol were removed during manufacture. CD34^+ mPB cells from three donors were cultured as described above (Example 1) in medium±VPA or garcinol, and compared with HSC medium, STEMSPAN™ ACF, SCGM or STEMSPAN™ ACF with STEMSPAN™ CD34^+ Expansion Supplement (10×). At day 7, cells were assessed for TNC, % viability, CD34^+, CD34^+CD90^+CD45RA^− cells as described above. To pool data points (CD34^+ expansion, TNC expansion) from the three donors, all conditions were normalized to SCGM media the standard error calculated. For pooling of % CD34^+ and % CD34^+CD90^+CD45RA^− data points in the three donors, the values were averaged and standard error calculated.

Setting [1] is: in HSC Medium made with the named small molecule(s) only.
[2] abbreviates: small molecule(s) added to SCGM.
Where [3] appears, read: small molecule(s) added to ACF (STEMSPAN ACF).

In the case of `C=C(C)[C@@H](CC=C(C)C)C[C@@]12C[C@@H](CC=C(C)C)C(C)(C)[C@@](CC=C(C)C)(C(=O)C(C(=O)c3ccc(O)c(O)c3)=C1O)C2=O` [Garcinol, garcinol], under setting [1], the “% CD34^+CD90^+” value is on record as “+” and the “Fold TNC” value is given as “+”. Moreover, under setting [2], the “% CD34^+” value is “+”, the “% CD34^+CD90^+” value is recorded as “+”, the “Fold CD34^+” value was “+” and the “Fold TNC” value is “+”.

Turning to `CCCC(CCC)C(=O)O` [VPA, valproic acid], where the note is “added to ACF”, the “performance (HSC expansion)” value is “boosted performance to HSC Medium (with garcinol and VPA) levels”. Besides, the “% CD34^+CD90^+CD45RA^−” value (added to competitor media) is given as “improved”. The “expansion of HSC / performance” value (added to competitor media (SCGM, STEMSPAN ACF)) is on record as “improved expansion of HSC”. Under setting [1], the “% CD34^+” value is listed as “++”, the “Fold CD34^+” value is listed as “+” and the “Fold TNC” value is recorded as “+”. Moreover, under setting [3], the “% CD34^+” value was “++” and the “% CD34^+CD90^+” value is given as “++”. For the same compound, under setting [2], the “% CD34^+” value is listed as “++”, the “% CD34^+CD90^+” value is “++”, the “Fold CD34^+” value is listed as “++” and the “Fold TNC” value is “++”.
